Data from ChEMBL document CHEMBL5113491, “Discovery of N-benzylarylamide derivatives as novel tubulin polymerization inhibitors capable of activating the Hippo pathway” (Eur J Med Chem, 2022).
The source made the active and inactive calls. No cut-off for these calls is given here.

Legend:
Sus scrofa = species on record: Sus scrofa; experiment: (§1) Inhibition of porcine brain microtubule polymerization measured after 1 hrs by fluorescence based assay; settings: DDE = dose-dependent effect
[1] = as §1; design: species or system Sus scrofa
MGC-803 [2] = experiment: Induction of morphological changes in human MGC-803 cells assessed as cell fragmentation at 15 to 45 nmol/L measured after 48 hrs by bright field microscopic analysis; format: functional, cell-based; settings: dose 15-45 nmol/L
MGC-803 [3] = experiment: Induction of G2/M phase cell cycle arrest in human MGC-803 cells assessed as decrease in cyclin B1 expression at 15 to 45 nmol/L measured after 48 hrs by Western blot analysis; format: functional, cell-based; settings: dose 15-45 nmol/L
MGC-803 [4] = experiment: Induction of G2/M phase cell cycle arrest in human MGC-803 cells assessed as increase in p-Histone H3 expression at 15 to 45 nmol/L measured after 48 hrs by Western blot analysis; format: functional, cell-based; settings: dose 15-45 nmol/L
NCI-H520 = experiment: Antiproliferative activity against human NCI-H520 cells assessed as inhibition of cell growth measured after 48 hrs by MTT assay; format: functional, cell-based; settings: NCI-H520, 48 h
MGC-803 [5] = experiment: Activation of LATS in human MGC-803 cells assessed as increase in LATS phosphorylation measured after 48 hrs by Western blot analysis; format: cell-based; settings: filed as activator, dose 15-45 nmol/L, DDE = dose-dependent effect
SGC-7901 = experiment: Induction of apoptosis in human SGC-7901 cells assessed as increase in cleaved caspase 7 expression at 15 to 45 nmol/L measured after 48 hrs by Western blot analysis; format: functional, cell-based; settings: dose 15-45 nmol/L
MGC-803 [6] = experiment: Inhibition of colony formation in human MGC-803 cells measured after 7 days; format: functional, cell-based; settings: dose 6-30 nmol/L, time 7.0 day, DDE = dose-dependent effect
[7] = Cytotoxicity against human GES1 cells assessed as reduction in cell viability measured after 48 hrs by MTT assay; format: toxicity, cell-based

- inhibition (Sus scrofa): Dde
- IC50 [1]: 920 nM
- IC50 (NCI-H520): 52 nM
SMILES: C/C=C/C(=O)N(Cc1ccc(OC)c(O)c1)c1cc(OC)c(OC)c(OC)c1
- Activity (MGC-803 [2]): Active
- Activity (MGC-803 [3]): Active
- Activity (MGC-803 [4]): Active
- Activity (MGC-803 [5]): Dde
- Activity (SGC-7901): Active
- inhibition (MGC-803 [6]): Dde
- IC50 at 48 h [7]: 768 nM
